Source: patent US5441563A, “Highly insoluble azole embossing inhibitor and the use thereof” (Armstrong World Industries, Inc., priority 1994, dated 1995)
Converted amounts (≈) assume the structure as drawn. Read-outs that look alike come from different tables or passages of the source.

How the values were obtained:
[1] = physchem; format: physicochemical; conditions: for solubility at 24 h / Solubility in H2O: water; for Solubility in H2O: 24 h
[2] = Inhibitor activity (IA), depth of chemical embossing and degree of expansion ranked against BTA-P (Table II); design: key to Inhibitor Activity (IA): 1: Excellent; 2: Very Good; 3: Good; 4: Fair; 5: Poor; None; conditions: for Inhibitor Activity (IA): 10% by weight inhibitor in ink, scale 1 to 5, BTA-P benchmark = 1, 7 mil plastisol, 185 °C, 1.9 min
Method: Table II sets forth a number of properties of the examples and comparative examples which were made and tested. Most of these compounds were prepared using the direct milling procedure and then evaluated for inhibitor activity, ghosting and embossing definition.
The inhibited inks (at 10% by weight inhibitor concentration) were printed on 7 mils of an expandable plastisol coated onto a glass mat which was saturated with a non-expandable plastisol. This was done on a flat-bed gravure proof press using a 100 line screen step-wedge gravure plate. The steps ranged from a deep shadow tone to a shallow highlight tone. The inks printed and dried without any tack.
The printed samples were coated with 10 mils of a clear plastisol wearlayer and heated for 1.9±0.1 minutes at an air temperature of 185°±2° C. in a Werner. Mathis oven to fuse and expand the foamable plastisol to about 14 mils (a 2:1 blow ratio). The thickness of the printed coated areas (i.e., restricted area) was measured in mils and compared to the thickness of the expanded unprinted surrounding areas. This difference was recorded as depth of chemical embossing and was used along with the degree of expansion in the inhibited area to access the inhibitor activity (IA).
The inhibitor activity of the BTA-P derivative was established as the benchmark and on a scale of 1 to 5 was given a rating of 1 (five on the scale being less than one mil of overall chemical embossing). This is a subjective ranking where the other compounds were evaluated for inhibitor activity by comparing them to BTA-P, both numerically and visually.

| Compound | Solubility in iPrOH ([1]; 1440 min) | Inhibitor Activity (IA) [2] | also measured |
| --- | --- | --- | --- |
| c1ccc2[nH]nnc2c1 [BTA, Benzotriazole, reference compound] | 53.9 % BY WT | 2 | solubility at 24 h [1]: 19800 µg/mL (≈ 166000 µM) |
| CS(=O)(=O)NCn1nnc2ccccc21 [BTA-MSA, 1-(1'-methanesulfonamido) methyl benzotriazole] |  | 5 |  |
| O=C1CNC(=O)N1Cn1nnc2ccccc21 [BTA-H] |  | 5 |  |
| 1Bis(hydroxyethyl)aminomethyltotyltriazole [TTA-HE, reference compound] | > 50 % BY WT | 3 | Solubility in H2O [1]: ~50 % BY WT |
| CCCCc1ccc2c(c1)nnn2CNC(=O)NCn1nnc2cc(CCCC)ccc21 [Example 5-BBTA-U, 1,3-Bis(5'-Butyl Benzotriazol-1'-yl Methyl) Urea] |  | 3 |  |
| O=C(NCn1nnc2ccccc21)NC(=O)NCn1nnc2ccccc21 [BTA-B, 1,5-Bis(Benzotriazol-1'-yl Methyl) Biuret] |  | 4 |  |
| CC(N1CCCC1=O)n1nnc2ccccc21 (stereo not shown) [BTA-PY, 1-(1'-(2'-oxopyrrolidin-1'-yl)ethyl) benzotriazole] |  | 5 |  |
| O=C(NN(Cn1nnc2ccccc21)Cn1nnc2ccccc21)c1ccccc1 [BTA-HYR, 1-Bis(Benzotriazol-1'-yl Methyl)-2-Benzoyl Hydrazide] | 0.019 % BY WT | 1 | solubility at 24 h [1]: 60 µg/mL (≈ 151 µM) |
| S=C(NCn1nnc2ccccc21)NCn1nnc2ccccc21 [BTA-TU, 1,3-bis(benzotriazol-1-ylmethyl) thiourea] | 0.011 % BY WT | 2 | solubility at 24 h [1]: 10 µg/mL (≈ 29.6 µM) |
| Cc1ccc2c(c1)nnn2CNC(=O)NCn1nnc2cc(C)ccc21 [Example 5-TTA-U, 1,3-bis(5'-tolyltriazol-1'-ylmethyl) urea] |  | 3 |  |
| c1ccc2[nH]cnc2c1 [BI, Benzimidazole] |  | 2 | Solubility in iPrOH ([1]; isopropyl alcohol, room temperature, 24 hours): 15.30 % BY WT; solubility at 24 h ([1]; H2O, room temperature, 24 hours, read-out: Solubility in H2O): 5000 µg/mL (≈ 42300 µM); Inhibitor effectiveness in words [2]: effective inhibitor |
| O=C(NCn1nnc2ccccc21)c1ccccc1 [BTA-PA, reference compound] |  | N |  |
| CN(Cn1nnc2ccccc21)C(=O)N(C)Cn1nnc2ccccc21 [BTA-DMU, 1,3-Bis(benzotriazol-1'-ylmethyl) N,N'-dimethyl urea] |  | 3 |  |
| ON(Cn1nnc2ccccc21)Cn1nnc2ccccc21 [BTA-NOH, N,N-bis (benzotriazol-1-yl methyl) hydroxylamine] | 1.08 % BY WT | 1 | solubility at 24 h [1]: 800 µg/mL (≈ 2710 µM) |
| O=C(O)CN(Cn1nnc2ccccc21)Cn1nnc2ccccc21 [BTA-G, N,N-bis(benzotriazol-1-ylmethyl) glycine] | 0.914 % BY WT | 1 | solubility at 24 h [1]: 6900 µg/mL (≈ 20500 µM) |
| c1ccc2c(c1)ncn2CN1CCN(Cn2cnc3ccccc32)CC1 [BI-P, N,N'-Bis(Benzimidazol-1-yl Methyl) Piperazine] | 0.211 % BY WT | 1 | solubility at 24 h [1]: 530 µg/mL (≈ 1530 µM) |
| 1Bis(2-ethylhexyl)aminomethyltolyltriazole [TTA-EH, reference compound] | > 50 % BY WT | 2 | Solubility in H2O [1]: < 0.01 % BY WT |
| c1ccc(-c2nc(NCn3nnc4ccccc43)nc(NCn3nnc4ccccc43)n2)cc1 [BTA-BG, 2,4-bis(benzotriazol-1'-ylmethyl) benzoguanamine] |  | 4 |  |
| c1ccc2c(c1)nnn2CNc1nc(NCn2nnc3ccccc32)nc(NCn2nnc3ccccc32)n1 [Example 3BTA-M] |  | 3 |  |
| c1ccc2c(c1)nnn2Cn1nnc2ccccc21 [BTA-D, reference compound] |  | N |  |
| CC(n1nnc2ccccc21)n1c2ccccc2c2ccccc21 (stereo not shown) [BTA-C, 1-(1'-(Carbazo-9'-yl)Ethyl) Benzotriazole, reference compound] |  | N |  |
